{
  "source": "paper PMC9954146",
  "about": "“Anti-Leukaemic Activity of Rilpivirine Is Mediated by Aurora A Kinase Inhibition” (Cancers, 2023)",
  "key": {"[1]": {"tested_on": "KG1 cells", "set-up": "method as in PMID 18056483", "details": "cited from earlier work"}, "[2]": {"tested_on": "SKOV-3 ovarian-cancer cells", "set-up": "method as in PMID 28390117", "details": "FACS analysis; cited from earlier work"}, "[3]": {"tested_on": "HL-60 cells", "test": "Resazurin cell viability assay", "type": "cell-based", "details": "Homo sapiens, HL-60, 72 h; read-out: 72-h GI50", "protocol": "Cell viability was determined by a resazurin-based assay as described previously. […] At the end of the treatment period, 20 µL of resazurin (0.1 mg/mL in PBS) was added per well and incubated for further 4 h."}, "[4]": {"tested_on": "K-562 cells", "test": "Resazurin cell viability assay", "type": "cell-based, human", "details": "72 h", "protocol": "Cell viability was determined by a resazurin-based assay as described previously. Briefly, 5 × 10^3 cells/well were seeded into 96-well plates (Corning Inc., Corning, NY, USA) in 180 µL of RPMI 1640 medium and incubated overnight at 37 °C with 5% CO2. Next day, cells were treated with rilpivirine after serially diluted (1:2 dilution for final concentrations ranging from 0.625 µM to 40 µM) or DMSO (0.1%) for specified time periods (24, 48, or 72 h). At the end of the treatment period, 20 µL of resazurin (0.1 mg/mL in PBS) was added per well and incubated for further 4 h. Fluorescence intensities were recorded at 570 nm (excitation)/585 nm (emission) using an EnVision® multilabel plate reader (PerkinElmer, MA, USA). Drug concentrations required for cell viability reduction by 50% (GI50) compared with untreated (DMSO vehicle-treated only) control were determined by a non-linear regression model using GraphPad Prism software version 7.02 (La Jolla, CA, USA)."}, "[5]": {"tested_on": "K-562 cells", "test": "Cell cycle analysis (PI, flow cytometry)", "type": "cell-based, human", "protocol": "(§1) To determine the effect of rilpivirine on cell-cycle distribution a flow cytometry-based analysis was performed after staining the untreated and treated cells with propidium iodide (PI) solution [22]. Briefly, 6 × 10^4 cells/well were seeded in 3 mL of medium per well in 6-well plates. After overnight incubation at 37 °C in 5% CO2, the cells were incubated with the test compounds for specified time points. The medium-containing cells were then taken out from the wells and transferred to FACS tubes. Cells were then pelleted by centrifugation at 300 g for 5 min. Afterward, cells were fixed by using 70% (v/v) ice-cold ethanol for 15 min and then again pelleted by centrifugation (300 g for 5 min). Finally, the cells were incubated with 200 µL of PI staining solution (50 μg/mL PI, 0.1% sodium citrate, 0.1 mg/mL RNase A, and 0.1% Triton X-100) for 1.5 h at room temperature in the dark. After the incubation period, the cells were analysed using a CytoFLEX flow cytometer (Beckman Coulter Inc., Brea, CA, USA). CytExpert software version 2.1 was used for data analysis and graph preparation."}, "[6]": {"tested_on": "Aurora A", "set-up": "method as in PMID 36297298", "details": "cited from earlier work"}, "[7]": {"tested_on": "NB4 cells", "test": "Cell cycle analysis (PI, flow cytometry)", "type": "cell-based, human", "details": "10 µM, 24 h", "protocol": "as §1"}, "[8]": {"tested_on": "U-937 cells", "test": "Cell cycle analysis (PI, flow cytometry)", "type": "cell-based, human", "details": "10 µM, 24 h", "protocol": "as §1"}},
  "data": [
    {"smiles": "CC(C)(C)n1nc(-c2ccc(Cl)cc2)c2c(N)ncnc21", "note": "[PP2]", "values": [
      {"measurement": "cell-cycle arrest", "setting": "[1]", "result": "induced G1 cell-cycle arrest"}
    ]},
    {"smiles": "C[C@H](Cn1cnc2c(N)ncnc21)OCP(=O)(O)O", "note": "[tenofovir]", "values": [
      {"measurement": "cell-cycle phase arrest", "setting": "[2]", "result": "predominance of a G0/G1 phase arrest"}
    ]},
    {"smiles": "Nc1ccn([C@@H]2O[C@H](CO)[C@@H](O)[C@@H]2O)c(=O)n1", "note": "[cytarabine]", "values": [
      {"measurement": "GI50", "setting": "[3]", "result": 0.07, "unit": "µM"}
    ]},
    {"smiles": "N[C@@H]1CCCN(c2c(/C=C3\\SC(=O)NC3=O)cccc2-c2ccccc2)C1", "note": "[AZD1208]", "values": [
      {"measurement": "GI50", "setting": "[4]", "result": "~38", "unit": "µM"},
      {"measurement": "cell-cycle arrest", "setting": "[5]; 60 μM, 48 h", "result": "induced G1 arrest"}
    ]},
    {"smiles": "O=C1Nc2ccc(Cl)cc2[C@@](C#CC2CC2)(C(F)(F)F)O1", "note": "[efavirenz]", "values": [
      {"measurement": "cell-cycle phase arrest", "setting": "[2]", "result": "predominance of a G0/G1 phase arrest"}
    ]},
    {"smiles": "CC(C)CN(C[C@@H](O)[C@H](Cc1ccccc1)NC(=O)O[C@H]1CO[C@H]2OCC[C@H]21)S(=O)(=O)c1ccc(N)cc1", "note": "[darunavir]", "values": [
      {"measurement": "cell-cycle phase arrest", "setting": "[2]", "result": "predominance of a G0/G1 phase arrest"}
    ]},
    {"smiles": "Cc1cc(C#N)cc(C)c1Oc1nc(Nc2ccc(C#N)cc2)nc(N)c1Br", "note": "[etravirine]", "values": [
      {"measurement": "Aurora A kinase inhibition", "setting": "[6]", "result": "inability to inhibit Aurora A kinase"},
      {"measurement": "cell-cycle phase arrest", "setting": "[2]", "result": "predominance of a G0/G1 phase arrest"},
      {"measurement": "proportion of cells in the G2/M phase", "setting": "[2]", "result": "failed to increase the proportion of cells in the G2/M phase"},
      {"measurement": "G2/M phase arrest", "setting": "[7]", "result": "failed to induce a G2/M phase arrest"},
      {"measurement": "G2/M phase arrest", "setting": "[8]", "result": "failed to induce a G2/M phase arrest"},
      {"measurement": "G2/M phase arrest", "setting": "[5]; 10 µM, 24 h", "result": "failed to induce a G2/M phase arrest"}
    ]},
    {"smiles": "Nc1nc(NC2CC2)c2ncn([C@H]3C=C[C@@H](CO)C3)c2n1", "note": "[abacavir]", "values": [
      {"measurement": "cell-cycle phase arrest", "setting": "[2]", "result": "predominance of a G0/G1 phase arrest"}
    ]}
  ]
}
